{"source": "patent US20020002144A1", "about": "“Methods and compositions for bisubstrate inhibitors of acetyltransferases” (The Government of the United States of America, Department …, priority 1999, published 2002)", "key": {"[1]": {"system": "arylamine N-acetyltransferase (E.C. 2.3.1.5)", "settings": "adverse reactions reported to result from acetylation of the drug; cited from earlier work"}, "AANAT [2]": {"target": "T1, AANAT (Ovis aries, UniProt Q29495)", "T1 construct": "made in house", "T1 sequence (Q29495 whole entry)": "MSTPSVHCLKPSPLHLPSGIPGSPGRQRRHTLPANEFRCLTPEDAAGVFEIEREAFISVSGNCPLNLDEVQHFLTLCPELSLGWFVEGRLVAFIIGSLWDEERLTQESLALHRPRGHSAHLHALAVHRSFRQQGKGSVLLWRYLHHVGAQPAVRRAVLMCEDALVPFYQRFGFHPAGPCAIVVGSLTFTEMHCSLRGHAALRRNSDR", "test": "AANAT assay with aqueous extracts of AANAT/CoA/N-bromoacetyltryptamine pre-incubations", "assay_type": "biochemical", "settings": "20 μl extract in 100 μl AANAT assay", "description": "AANAT assay: The specific activity of the AANAT preparation was determined from measurement of the activity of the enzyme and amount of protein in a preparation. Activity was assayed by incubating the enzyme with ^3H-acetyl CoA (0.5 mM, 4 μCi/μmole) and tryptamine hydrochloride (1 mM), bovine serum albumin (0.5 mg/ml) and the enzyme in total volume of 100 μl of sodium phosphate (0.1M, pH 6.8) (6,7). The incubation was terminated by extracting the product ^3H-acetyltryptamine with chloroform (1 ml). The chloroform phase was washed sequentially with 200 μl of the sodium phosphate buffer and twice with 200 μl of NaOH (1N). The radioactivity in 400 μl of the chloroform phase was determined following evaporation of chloroform under vacuum. Protein was measured by optical density at 280 nm and by dye binding using the Brandford procedure.\nIncubations to study formation of CoA-S-N-acetyltryptamine.—Bromoacetyltryptamine (20 μM) was incubated (37° C., 30 min) with coenzyme A (20 μM), bovine serum albumin (0.5 mg/ml) and the enzyme in a total volume of 100 μl of Tris HCl (50 mM, pH 7.4) and the incubation was terminated by adding chloroform (1 ml) and vortexing. The aqueous phase was then removed. Samples of the aqueous phase from each chloroform extraction were analyzed by mass spectroscopy and for inhibitory activity in an AANAT assay.\nThis conclusion was supported by the biochemical evidence from experiments in which the aqueous extracts analyzed above were incubated with a fresh preparation of AANAT in an AANAT assay. Inhibitory activity of the extract was determined."}, "rat pinealocytes [3]": {"system": "rat pinealocytes", "test": "Cytotoxicity to pinealocytes (response to norepinephrine after wash out)", "assay_type": "cell-based", "settings": "18 hour treatment with 0.5 μM, medium changed, then norepinephrine", "description": "(§1) Pineal cell preparation and treatment: Pinealocytes were prepared from rat pineal glands by trypsinization as previously described (10). The cells were suspended in Dulbecco's modified Eagle medium (DMEM) containing 10% fetal calf serum and maintained (37° C.) for 18 h in a gas mixture of 95% air and 5% CO2. During this 18 hour period, some cells were treated, as indicated in Table 2 experiment 2, in aliquots of 50,000 cells/300 μl and washed prior to addition of fresh medium and further treatment. In some cases, as in Table 3, experiment 1, cells were not aliquoted until after 18 hours of control incubation and in these cases, aliquots of cells (50,000 cells/300 μl) were prepared and treated with drugs. Drugs were prepared in 100×concentrated solutions in water or dimethyl sulfoxide. The duration of the drug treatment was 5 h.\nThe effect of an 18 hour treatment with 0.5 μM N-bromoacetyltryptamine was examined. Following the 18 hour treatment, the medium was changed and fresh medium was added. Following this treatment, cells responded to norepinephrine treatment with an increase in melatonin production and AANAT activity."}, "rat pinealocytes [4]": {"system": "rat pinealocytes", "test": "Melatonin production by norepinephrine-treated pinealocytes (radioimmunoassay of medium)", "assay_type": "cell-based", "settings": "for Melatonin production: Experiment 1, 18-24 hours; for Melatonin (18-23 hr): Experiment 2", "description": "as §1\nAt the end of treatment period, cells were collected by centrifugation (2 min, 10,000 g) and the medium was removed and stored. Cell pellets were frozen immediately in dry ice and stored at −80° C. until determination of AANAT activity. The supernatant collected was used for determination of melatonin.\nMelatonin analysis. Melatonin in the medium was determined by a radioimmunoassay as described previously (11,12). Briefly, melatonin was extracted from 300 μl of medium by vortexing with 1 ml of methylene chloride. After centrifugation, 700 μl of the organic phase was collected and evaporated to dryness. The residue was reconstituted in 500 μl of assay buffer (0.01M phosphate buffer, pH 7.5, containing 0.1% gelatin).\nAn ultraspecific melatonin antiserum from CIDtech Research Inc. (Mississauga, Ontario Canada) was used for the melatonin radioimmunoassay. Aliquots of extracted melatonin samples were diluted to 500 μl with assay buffer. 100 μl of melatonin antiserum and 50 μl of [^3H]melatonin (˜2000 cpm, at 45.5 Ci/mmol) were then added. After mixing, the tubes were incubated at 4° C. overnight. To separate the bound from the free [^3H] melatonin, 650 μl of saturated ammonium sulphate were added and the samples were incubated at 4° C. for 1 hr. The bound [^3H]melatonin was collected in a protein pellet by centrifugation (4,000 g×30 min) and re-dissolved in 550 μl of deionized water. 500 μl was then used for scintillation counting. Both inter- and intra-assay variability were less than 10%.\nN-Bromoacetyltryptamine treatment of rat pinealocytes inhibits melatonin production. Experiments were conducted to determine if N-bromoacetyltryptamine could inhibit production of melatonin. This was done using rat pinealocytes in which melatonin production was elevated by treatment with norepinephrine, which acts by elevating the activity of AANAT."}, "AANAT [5]": {"target": "T2, AANAT (Rattus norvegicus, UniProt Q64666)", "T2 construct": "Pinealocytes were prepared from rat pineal glands by trypsinization; endogenous in cells; host or cells: primary pinealocytes from male Sprague-Dawley rats", "T2 sequence (Q64666 whole entry)": "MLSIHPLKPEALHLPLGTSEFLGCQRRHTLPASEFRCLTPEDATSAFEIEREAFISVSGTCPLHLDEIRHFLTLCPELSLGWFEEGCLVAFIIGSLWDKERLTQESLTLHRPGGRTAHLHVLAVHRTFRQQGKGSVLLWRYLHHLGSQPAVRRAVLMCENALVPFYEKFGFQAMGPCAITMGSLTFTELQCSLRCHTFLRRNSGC", "test": "AANAT activity in treated pinealocytes", "assay_type": "cell-based", "settings": "Experiment 2", "description": "AANAT assay: The specific activity of the AANAT preparation was determined from measurement of the activity of the enzyme and amount of protein in a preparation. Activity was assayed by incubating the enzyme with ^3H-acetyl CoA (0.5 mM, 4 μCi/μmole) and tryptamine hydrochloride (1 mM), bovine serum albumin (0.5 mg/ml) and the enzyme in total volume of 100 μl of sodium phosphate (0.1M, pH 6.8) (6,7). The incubation was terminated by extracting the product ^3H-acetyltryptamine with chloroform (1 ml). The chloroform phase was washed sequentially with 200 μl of the sodium phosphate buffer and twice with 200 μl of NaOH (1N). The radioactivity in 400 μl of the chloroform phase was determined following evaporation of chloroform under vacuum. Protein was measured by optical density at 280 nm and by dye binding using the Brandford procedure. Pineal cell preparation and treatment: Pinealocytes were prepared from rat pineal glands by trypsinization as previously described (10). The cells were suspended in Dulbecco's modified Eagle medium (DMEM) containing 10% fetal calf serum and maintained (37° C.) for 18 h in a gas mixture of 95% air and 5% CO2. During this 18 hour period, some cells were treated, as indicated in Table 2 experiment 2, in aliquots of 50,000 cells/300 μl and washed prior to addition of fresh medium and further treatment. In some cases, as in Table 3, experiment 1, cells were not aliquoted until after 18 hours of control incubation and in these cases, aliquots of cells (50,000 cells/300 μl) were prepared and treated with drugs. Drugs were prepared in 100×concentrated solutions in water or dimethyl sulfoxide. The duration of the drug treatment was 5 h. At the end of treatment period, cells were collected by centrifugation (2 min, 10,000 g) and the medium was removed and stored. Cell pellets were frozen immediately in dry ice and stored at −80° C. until determination of AANAT activity. The supernatant collected was used for determination of melatonin."}, "[6]": {"settings": "Treatment I BAT (0.5 μM) (0-18 hr), wash out, Treatment II NE (10 μM) (18-23 hr)"}, "[7]": {"settings": "Treatment I DMSO (0-18 hr), Treatment II NE 10 μM + BAT (0.5 μM) (18-23 hr)"}, "[8]": {"settings": "Treatment I DMSO (0-18 hr), Treatment II NE 10 μM (18-23 hr)"}}}
{"smiles": "CCC1(c2ccc(N)cc2)CCC(=O)NC1=O", "note": "(centres unmarked) [Aminoglutethamide]", "values": [{"measurement": "Adverse Drug Reaction Reported", "setting": "[1]", "result": "Adrenal insufficiency"}]}
{"smiles": "Nc1ccc(S(=O)(=O)c2ccc(N)cc2)cc1", "note": "[Dapsone]", "values": [{"measurement": "Adverse Drug Reaction Reported", "setting": "[1]", "result": "Hematological"}]}
{"smiles": "NNc1nncc2ccccc12", "note": "[Hydralazine]", "values": [{"measurement": "Adverse Drug Reaction Reported", "setting": "[1]", "result": "Lupus, uncontrolled hypertension"}]}
{"smiles": "NNC(=O)c1ccncc1", "note": "[Isoniazid]", "values": [{"measurement": "Adverse Drug Reaction Reported", "setting": "[1]", "result": "Peripheral neuropathy, liver"}]}
{"smiles": "O=C(CBr)NCCc1c[nH]c2ccccc12", "note": "[N-Bromoacetyltryptamine]", "values": [{"measurement": "remaining activity at 20 µM", "setting": "AANAT [2]; Complete pre-assay reaction (AANAT + CoA 20 μM + N-bromoacetyltryptamine 20 μM, 37° C., 30 min), read-out: AANAT Activity (% of control)", "result": 38, "unit": "%"}, {"measurement": "AANAT Activity (% of control)", "setting": "AANAT [2]; pre-assay reaction Minus CoA", "result": 107, "unit": "%"}, {"measurement": "AANAT Activity (% of control)", "setting": "AANAT [2]; pre-assay reaction Zero time (not incubated)", "result": 110, "unit": "%"}, {"measurement": "AANAT Activity (% of control)", "setting": "AANAT [2]; pre-assay reaction with Boiled enzyme", "result": 104, "unit": "%"}, {"measurement": "cytotoxicity", "setting": "rat pinealocytes [3]", "result": "not cytotoxic"}, {"measurement": "production of melatonin", "setting": "rat pinealocytes [4]; 5 hour treatment with 0.1, 0.5 or 1 μM, norepinephrine-treated rat pinealocytes", "result": "markedly reduced"}, {"measurement": "Melatonin production", "setting": "rat pinealocytes [4]; N-Bromoacetyltryptamine (1 μM) alone", "result": "0.65 ± 0.05 pmol/100,000 cells"}, {"measurement": "Melatonin production", "setting": "rat pinealocytes [4]; Norepinephrine (10 μM) + N-Bromoacetyltryptamine (0.1 μM)", "result": "4.55 ± 0.04 pmol/100,000 cells"}, {"measurement": "Melatonin production", "setting": "rat pinealocytes [4]; Norepinephrine (10 μM) + N-Bromoacetyltryptamine (1 μM)", "result": "0.95 ± 0.25 pmol/100,000 cells"}, {"measurement": "Melatonin (18-23 hr)", "setting": "rat pinealocytes [4]; Treatment I BAT (0.5 μM) (0-18 hr), wash out, Treatment II Control (18-23 hr)", "result": "1.78 ± 0.14", "unit": "pmole/10^5 cells"}, {"measurement": "Melatonin (18-23 hr)", "setting": "rat pinealocytes [4]; [6]", "result": "12.22 ± 2.90", "unit": "pmole/10^5 cells"}, {"measurement": "Melatonin (18-23 hr)", "setting": "rat pinealocytes [4]; [7]", "result": "1.88 ± 0.82", "unit": "pmole/10^5 cells"}, {"measurement": "AANAT (23 hr)", "setting": "AANAT [5]; [6]", "result": "0.86 ± 0.06", "unit": "μmol/h/105 cells"}, {"measurement": "AANAT (23 hr)", "setting": "AANAT [5]; [7]", "result": "0.48 ± 0.05", "unit": "μmol/h/105 cells"}]}
{"smiles": "NC[C@H](O)c1ccc(O)c(O)c1", "note": "[Norepinephrine, reference compound]", "values": [{"measurement": "Melatonin production", "setting": "rat pinealocytes [4]; Norepinephrine (10 μM) alone", "result": "12.43 ± 2.00 pmol/100,000 cells"}, {"measurement": "Melatonin (18-23 hr)", "setting": "rat pinealocytes [4]; [8]", "result": "10.44 ± 1.07", "unit": "pmole/10^5 cells"}, {"measurement": "AANAT (23 hr)", "setting": "AANAT [5]; [8]", "result": "0.89 ± 0.10", "unit": "μmol/h/105 cells"}]}
{"smiles": "CCN(CC)CCNC(=O)c1ccc(N)cc1", "note": "[Procainamide]", "values": [{"measurement": "Adverse Drug Reaction Reported", "setting": "[1]", "result": "Lupus, uncontrolled arrhythmias"}]}
{"smiles": "Cc1cc(C)nc(NS(=O)(=O)c2ccc(N)cc2)n1", "note": "[Sulfamethazine]", "values": [{"measurement": "Adverse Drug Reaction Reported", "setting": "[1]", "result": "Hematological/Gastrointestinal"}]}
